Source: patent US12215133B2 (BrightGene Bio-Medical Technology Co., Ltd., priority 2021, dated 2025)

Tests used:
GIP receptor = target: T1, GIP receptor (Homo sapiens, UniProt P48546); assay: cAMP experiment, GIP receptor (CHO host cell line); format: cell-based; settings: CHO host cells
T1 construct: expressed in transfected cells; host or cells: CHO cell line
T1 sequence (P48546 22-466): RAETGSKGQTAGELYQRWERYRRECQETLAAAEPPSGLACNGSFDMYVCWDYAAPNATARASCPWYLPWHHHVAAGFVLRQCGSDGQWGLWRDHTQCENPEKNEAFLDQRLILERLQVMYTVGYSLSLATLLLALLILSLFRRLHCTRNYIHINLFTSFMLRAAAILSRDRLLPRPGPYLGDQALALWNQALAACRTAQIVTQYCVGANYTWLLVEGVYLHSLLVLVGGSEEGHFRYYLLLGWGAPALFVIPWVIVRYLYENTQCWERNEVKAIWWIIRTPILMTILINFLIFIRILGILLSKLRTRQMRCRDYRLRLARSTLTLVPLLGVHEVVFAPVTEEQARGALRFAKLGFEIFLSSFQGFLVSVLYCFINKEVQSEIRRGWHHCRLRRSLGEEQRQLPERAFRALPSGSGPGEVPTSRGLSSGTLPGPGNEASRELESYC

GLP-1 receptor = target: T2, GLP-1 receptor (Homo sapiens, UniProt P43220); assay: cAMP experiment, GLP-1 receptor (HEK293 host cell line); format: cell-based; settings: HEK293 host cells
T2 construct: expressed in transfected cells; host or cells: HEK293 cell line
T2 sequence (P43220 24-463, species assumed): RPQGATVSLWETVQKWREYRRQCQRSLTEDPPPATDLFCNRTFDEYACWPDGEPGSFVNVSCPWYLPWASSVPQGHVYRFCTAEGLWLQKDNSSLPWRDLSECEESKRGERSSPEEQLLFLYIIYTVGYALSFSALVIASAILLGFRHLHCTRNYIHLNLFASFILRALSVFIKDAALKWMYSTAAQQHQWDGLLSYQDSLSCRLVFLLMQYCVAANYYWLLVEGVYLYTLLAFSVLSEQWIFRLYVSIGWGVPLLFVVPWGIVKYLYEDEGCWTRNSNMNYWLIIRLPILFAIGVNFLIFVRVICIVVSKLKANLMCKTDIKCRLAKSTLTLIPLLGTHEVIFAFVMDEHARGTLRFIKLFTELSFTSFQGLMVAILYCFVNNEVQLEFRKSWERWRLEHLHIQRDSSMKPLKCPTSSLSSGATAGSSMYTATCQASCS

Compound `CC[C@H](C)[C@H](NC(=O)[C@H](CC(C)C)NC(=O)[C@H](Cc1c[nH]c2ccccc12)NC(=O)[C@H](CCC(N)=O)NC(=O)[C@@H](NC(=O)[C@H](Cc1ccccc1)NC(=O)[C@H](C)NC(=O)[C@H](CCCCN)NC(=O)[C@H](CCC(N)=O)NC(=O)[C@H](C)NC(=O)[C@@H](NC(=O)[C@H](CCCCNC(=O)COCCOCCOCCNC(=O)COCCOCCOCCNC(=O)CC[C@H](NC(=O)CCCCCCCCCCCCCCCCCCC(=O)O)C(=O)O)NC(=O)[C@H](CC(=O)O)NC(=O)[C@H](CC(C)C)NC(=O)C(C)(C)NC(=O)[C@@H](NC(=O)[C@H](CO)NC(=O)[C@H](Cc1ccc(O)cc1)NC(=O)[C@H](CC(=O)O)NC(=O)[C@H](CO)NC(=O)[C@@H](NC(=O)[C@H](Cc1ccccc1)NC(=O)[C@@H](NC(=O)CNC(=O)[C@H](CCC(=O)O)NC(=O)C(C)(C)NC(=O)[C@@H](N)Cc1ccc(O)cc1)[C@@H](C)O)[C@@H](C)O)[C@@H](C)CC)[C@@H](C)CC)C(C)C)C(=O)N[C@@H](C)C(=O)NCC(=O)NCC(=O)N1CCC[C@H]1C(=O)N[C@@H](CO)C(=O)N[C@@H](CO)C(=O)NCC(=O)N[C@@H](C)C(=O)N1CCC[C@H]1C(=O)N1CCC[C@H]1C(=O)N1CCC[C@H]1C(=O)N[C@@H](CO)C(N)=O` [BGM125, reference compound] has an EC50 (GIP receptor) of 684 pM and an EC50 (GLP-1 receptor) of 69.2 pM.
